Experimental data taken from US10716753B2, “Compositions for pulmonary delivery of long-acting muscarinic antagonists or long-acting B2 adrenergic receptor agonists and associated methods and systems” (priority 2009, dated 2020).

How the values were obtained:
[1] = system: patients with mild to moderate COPD; assay: Multi-center crossover clinical trial, single administration: FEV1 spirometry; assay type: in vivo, human; details: all doses of Glycopyrrolate MDI; tiotropium 18 μg
[2] = Aerosol performance by Next Generation Impactor, USP <601> (fine particle fraction, MMAD); assay type: physicochemical
Protocol: A Next Generation Impactor (NGI) operated at a flow rate of 30 L/min was used for determination of particle size distribution. Sample canisters were seated into an actuator with two waste actuations and two additional waste priming actuations. Five actuations were collected in the NGI with a USP throat attached. The valve, actuator, throat, NGI cups, stages, and filter were rinsed with volumetrically dispensed solvent. The sample solutions were assayed using a drug specific chromatographic method. The fine particle fraction was defined using the sum of stages 3 through filter. […] Inhalers were seated and primed as described before. Two actuations were collected and assayed at beginning, middle and end of use.
A Next Generation Impactor (NGI) operated at a flow rate of 30 L/min was used for determination of particle size distribution. Sample canisters were seated into an actuator with two waste actuations and two additional waste priming actuations. Five actuations were collected in the NGI with a USP throat attached. The valve, actuator, throat, NGI cups, stages, and filter were rinsed with volumetrically dispensed solvent. The sample solutions were assayed using a drug specific chromatographic method. The fine particle fraction was defined using the sum of stages 3 through filter. […] Two actuations were collected and assayed at beginning, middle and end of use.
A Next Generation Impactor (NGI) operated at a flow rate of 30 L/min was used for determination of particle size distribution. Sample canisters were seated into an actuator with two waste actuations and two additional waste priming actuations. Five actuations were collected in the NGI with a USP throat attached. The valve, actuator, throat, NGI cups, stages, and filter were rinsed with volumetrically dispensed solvent. The sample solutions were assayed using a drug specific chromatographic method. The fine particle fraction was defined using the sum of stages 3 through filter.

[3] = Visual observation of suspension quality / co-suspension in glass vials, incl. centrifugation; assay type: physicochemical; details: glass vials heated to 30° C.-35° C.
Source text: Exemplary methods for assessing whether a co-suspension is present can include the following: If one particle type has a pycnometric density greater than the propellant and another particle type has a pycnometric density lower than the propellant, a visual observation of the creaming or sedimentation behavior can be employed to determine the presence of a co-suspension. The term “pycnometric density” refers to the density of a material that makes up a particle, excluding voids within the particle. In one embodiment, the materials can be formulated or transferred into a transparent vial, typically a glass vial, for visual observation. After initial agitation the vial is left undisturbed for a sufficient time for formation of a sediment or cream layer, typically 24 hours. If the sediment or cream layer is observed to be completely or mostly a uniform single layer, a co-suspension is present.
Metered dose inhalers were prepared by weighing the target masses of micronized GP particles and suspending particles into fluorinated ethylene polymer (FEP) coated aluminum canisters (Presspart, Blackburn, UK) with 19 mL volume. […]

[4] = co-suspension MDI: 2 mg SX, 60 mg suspending particles, 10 mL HFA 134a

C[N+]1(C)[C@@H]2C[C@@H](OC(=O)C(O)(c3cccs3)c3cccs3)C[C@H]1[C@@H]1O[C@@H]12 [tiotropium]
Mean time to ≥10% improvement in FEV1 [1]: approximately 3 hour

C[N+]1(C)CCC(OC(=O)C(O)(c2ccccc2)C2CCCC2)C1.[Br-] (stereo not drawn) [glycopyrrolate, Pyrrolidinium, 3-((cyclopentylhydroxyphenylacetyl)oxy)-1,1-dimethyl-, bromide]
Fine particle fraction ([2]; 24 μg per actuation co-suspension MDI, initially): 59.3%

OCc1cc(C(O)CNCCCCCCOCCCCc2ccccc2)ccc1O (stereo not drawn) [SX, 4-hydroxy-α1-[[[6-(4-phenylbutoxy)hexyl]amino]methyl]-1,3-benzenedimethanol, 1-hydroxy-2-naphthalenecarboxylate]
Fine particle fraction [2, 4]: 48%
MMAD [2, 4]: 3.7 μm
Visual observation of active agent particles formulated alone [3]: sedimented rapidly
Visual observation of co-suspension vial [3]: no SX crystals were visible at the bottom
